Reference: ChEMBL document CHEMBL4371054, “Dual inhibition of Kif15 by oxindole and quinazolinedione chemical probes” (Bioorg Med Chem Lett, 2019)
pIC50: −log10 of the molar value. Active and inactive are the calls of the source. The calls are words filed in the database; no cut-off is given here.

Assays:
[1] = molecular target: T1, Kinesin-like protein KIF15 (Homo sapiens) (UniProt Q9NS87); experiment: Inhibition of Kif15 in K51-resistant human KIRC1 cells assessed as increase in cells with monopolar spindles after 24 hrs by Hoechst 33342 staining based immunofluorescence microscopic analysis
T1 sequence (whole entry): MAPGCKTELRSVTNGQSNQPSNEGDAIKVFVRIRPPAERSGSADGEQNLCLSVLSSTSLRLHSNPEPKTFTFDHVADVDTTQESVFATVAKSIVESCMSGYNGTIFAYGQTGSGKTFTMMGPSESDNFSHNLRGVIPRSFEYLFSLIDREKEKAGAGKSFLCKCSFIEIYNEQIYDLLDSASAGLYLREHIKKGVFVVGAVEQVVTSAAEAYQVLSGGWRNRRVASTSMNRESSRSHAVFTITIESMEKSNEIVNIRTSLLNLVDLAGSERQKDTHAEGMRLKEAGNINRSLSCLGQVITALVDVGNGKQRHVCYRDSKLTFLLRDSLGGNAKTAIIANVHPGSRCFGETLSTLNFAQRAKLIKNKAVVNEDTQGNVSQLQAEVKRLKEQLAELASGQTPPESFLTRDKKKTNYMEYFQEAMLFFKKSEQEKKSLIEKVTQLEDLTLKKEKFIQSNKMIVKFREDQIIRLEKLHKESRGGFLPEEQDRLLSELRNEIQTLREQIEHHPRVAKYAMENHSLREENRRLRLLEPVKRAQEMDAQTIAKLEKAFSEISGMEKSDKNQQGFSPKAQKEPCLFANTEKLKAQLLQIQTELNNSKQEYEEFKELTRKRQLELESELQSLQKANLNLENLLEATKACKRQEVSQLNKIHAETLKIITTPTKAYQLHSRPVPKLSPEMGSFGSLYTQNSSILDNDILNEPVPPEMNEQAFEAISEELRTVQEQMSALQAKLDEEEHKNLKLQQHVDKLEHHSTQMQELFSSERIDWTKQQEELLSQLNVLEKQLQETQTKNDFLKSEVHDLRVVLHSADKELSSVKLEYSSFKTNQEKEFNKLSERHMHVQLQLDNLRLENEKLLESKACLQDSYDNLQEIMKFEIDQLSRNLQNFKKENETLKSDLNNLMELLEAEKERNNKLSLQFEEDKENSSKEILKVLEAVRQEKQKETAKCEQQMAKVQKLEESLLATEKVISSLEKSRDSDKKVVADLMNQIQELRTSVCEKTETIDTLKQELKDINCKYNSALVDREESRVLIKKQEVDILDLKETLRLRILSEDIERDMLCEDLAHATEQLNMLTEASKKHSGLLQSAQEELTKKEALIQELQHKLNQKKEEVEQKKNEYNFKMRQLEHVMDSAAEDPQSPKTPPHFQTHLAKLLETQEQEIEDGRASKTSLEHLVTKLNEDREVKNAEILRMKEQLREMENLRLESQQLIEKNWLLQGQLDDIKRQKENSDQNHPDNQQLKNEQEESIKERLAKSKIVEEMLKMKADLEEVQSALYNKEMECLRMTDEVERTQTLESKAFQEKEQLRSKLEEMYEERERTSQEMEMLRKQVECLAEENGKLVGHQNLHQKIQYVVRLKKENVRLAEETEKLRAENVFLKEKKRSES

[2] = molecular target: T2, Kinesin-like protein KIF15 (Homo sapiens, UniProt Q9NS87); experiment: Inhibition of recombinant His6-tagged Kif15 (N700 residues) (unknown origin) expressed in HeLa cells assessed as reduction in Alexa-594 labelled microtubule gliding measured every 2 secs for 20 secs by epifluorescence microscopic analysis; assay type: cell-based
T2 sequence (Q9NS87 whole entry): T1 sequence (whole entry)

[3] = molecular target: T3, Kinesin-like protein KIFC1 (Homo sapiens) (UniProt Q9BW19); experiment: Inhibition of recombinant His6-tagged HSET (unknown origin) assessed as reduction in Alexa-594 labelled microtubule gliding at 30 uM measured every 2 secs for 20 secs by epifluorescence microscopic analysis relative to control
T3 sequence (whole entry): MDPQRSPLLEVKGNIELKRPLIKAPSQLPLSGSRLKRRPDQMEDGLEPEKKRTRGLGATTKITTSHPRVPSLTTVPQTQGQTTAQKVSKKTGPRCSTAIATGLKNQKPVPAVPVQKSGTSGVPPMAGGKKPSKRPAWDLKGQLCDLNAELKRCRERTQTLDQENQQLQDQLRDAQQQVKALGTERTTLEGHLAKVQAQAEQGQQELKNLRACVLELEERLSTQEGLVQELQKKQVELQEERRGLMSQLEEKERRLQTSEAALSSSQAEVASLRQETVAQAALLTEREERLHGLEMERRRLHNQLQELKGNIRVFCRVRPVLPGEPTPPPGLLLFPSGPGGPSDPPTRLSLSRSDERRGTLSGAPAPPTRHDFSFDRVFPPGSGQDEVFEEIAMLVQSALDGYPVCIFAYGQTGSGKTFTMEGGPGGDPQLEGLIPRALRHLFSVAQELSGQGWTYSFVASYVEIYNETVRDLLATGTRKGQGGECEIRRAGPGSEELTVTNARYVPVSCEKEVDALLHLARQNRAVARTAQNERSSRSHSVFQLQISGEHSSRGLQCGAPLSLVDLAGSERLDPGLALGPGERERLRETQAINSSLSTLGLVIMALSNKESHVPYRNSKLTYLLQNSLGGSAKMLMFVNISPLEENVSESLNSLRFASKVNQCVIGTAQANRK

[4] = molecular target: T1, Kinesin-like protein KIF15 (Homo sapiens); experiment: Inhibition of Kif15 in TP53-deficient human RPE1 cells assessed as effect on spindle length at 25 uM after 24 hrs by Hoechst 33342 staining based immunofluorescence microscopic analysis (reference value: 11.4 +/- 0.2 um)

O=C1Nc2ccc(C(=O)c3ccco3)cc2/C1=C/c1cc(Cl)c(O)c(Cl)c1
inhibition [1]: Dose-dependent effect | pIC50 [2]: 6.12 | inhibition [3]: 5.3% | inhibition [4]: inactive
